The values that follow come from patent US9186318B2, “Quinolyl-containing hydroxamic acid compound and preparation method thereof, and pharmaceutical composition containing this compound and use thereof” (Beijing Konruns Pharmaceutical Co., Ltd, priority 2011, dated 2015).

Holding throughout (experiment): KinomeScan 96-kinase panel
Common to all, as to assay type: binding
What all share (settings): compound concentration 1000 nM

For one test, the target named is CSNK1D (Homo sapiens (Human), UniProt P48730). An excerpt: (§1) The details of the screening technology were described in Fabian, M. A. et al, Nat., Biotechnol. 2005, 23, 329 and Karaman, M. W. et al, Nat., Biotechnol. 2008, 26, 127. From the above representative results, it can be seen that the compounds of the present invention have potent inhibitory activities on kinases including ALK, AXL, VEGFR2, PDGFR-α, PDGFR-β, c-KIT, Flt3, MEK1, MEK2, CSF1R, EPHA2, EPHA2, MKNK2, SRC, TIE2 and their mutants. Accordingly, the compounds of the present invention can be used for the treatment of diseases caused by abnormal activities of these kinases, e.g., cancer, psoriasis, hepatic cirrhosis, diabetes, diseases involving angiogenesis, eye diseases, immune system diseases, cardiovascular diseases, and so forth.

A further test addresses BRAF(V600E) (Homo sapiens (Human), UniProt P15056, V600E).
Excerpt: as §1

The target in the next test is MEK1 (Homo sapiens (Human), UniProt Q02750).
Excerpt: as §1

The target in the next test is EPHA2 (Homo sapiens (Human), UniProt P29317).
Excerpt: as §1

In the next test the target is PIK3C2B (Homo sapiens (Human), UniProt O00750).
Excerpt: as §1

The target in a further test is PIK3CA (Homo sapiens (Human), UniProt P42336).
Excerpt: as §1

A further test deals with IGF1R (Homo sapiens (Human), UniProt P08069).
Excerpt: as §1

The target in another test is TGFBR1 (Homo sapiens (Human), UniProt P36897).
Excerpt: as §1

A further test addresses LKB1 (Homo sapiens (Human), UniProt Q15831).
Excerpt: as §1

The target of the next test is CDK2 (Homo sapiens (Human), UniProt P24941).
Excerpt: as §1

The next test addresses MET (Homo sapiens (Human), UniProt P08581).
Excerpt: as §1

Another test concerns the target TRKA (Homo sapiens (Human), UniProt P04629).
Excerpt: as §1

A further test deals with PIK3CG (Homo sapiens (Human), UniProt P48736).
Excerpt: as §1

For the next test, the target named is SRPK3 (Homo sapiens (Human), UniProt Q9UPE1).
Excerpt: as §1

The target in the next test is CDK9 (Homo sapiens (Human), UniProt P50750).
Excerpt: as §1

The target in the next test is RIOK2 (Homo sapiens (Human), UniProt Q9BVS4).
Excerpt: as §1

A further test concerns the target MAPKAPK2 (Homo sapiens (Human), UniProt P49137).
Excerpt: as §1

Another test deals with PAK1 (Homo sapiens (Human), UniProt Q13153).
Excerpt: as §1

Another test addresses INSR (Homo sapiens (Human), UniProt P06213).
Excerpt: as §1

The target in another test is MARK3 (Homo sapiens (Human), UniProt P27448).
Excerpt: as §1

A further test addresses TSSK1B (Homo sapiens (Human), UniProt Q9BXA7).
Excerpt: as §1

The target in a further test is ROCK2 (Homo sapiens (Human), UniProt O75116).
Excerpt: as §1

Chain of MEK1 (Q02750 whole entry): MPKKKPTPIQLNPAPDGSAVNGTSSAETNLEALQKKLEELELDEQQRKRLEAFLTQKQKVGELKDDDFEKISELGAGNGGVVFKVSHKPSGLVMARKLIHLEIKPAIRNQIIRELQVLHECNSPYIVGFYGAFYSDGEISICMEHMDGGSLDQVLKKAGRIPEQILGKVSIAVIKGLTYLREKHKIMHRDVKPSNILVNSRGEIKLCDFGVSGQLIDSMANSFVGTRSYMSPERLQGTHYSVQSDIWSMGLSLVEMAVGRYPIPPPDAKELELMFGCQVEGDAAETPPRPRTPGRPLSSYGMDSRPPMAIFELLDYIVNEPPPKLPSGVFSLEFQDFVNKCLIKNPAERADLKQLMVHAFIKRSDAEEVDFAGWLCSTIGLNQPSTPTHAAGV
Chain of SRPK3 (Q9UPE1 whole entry): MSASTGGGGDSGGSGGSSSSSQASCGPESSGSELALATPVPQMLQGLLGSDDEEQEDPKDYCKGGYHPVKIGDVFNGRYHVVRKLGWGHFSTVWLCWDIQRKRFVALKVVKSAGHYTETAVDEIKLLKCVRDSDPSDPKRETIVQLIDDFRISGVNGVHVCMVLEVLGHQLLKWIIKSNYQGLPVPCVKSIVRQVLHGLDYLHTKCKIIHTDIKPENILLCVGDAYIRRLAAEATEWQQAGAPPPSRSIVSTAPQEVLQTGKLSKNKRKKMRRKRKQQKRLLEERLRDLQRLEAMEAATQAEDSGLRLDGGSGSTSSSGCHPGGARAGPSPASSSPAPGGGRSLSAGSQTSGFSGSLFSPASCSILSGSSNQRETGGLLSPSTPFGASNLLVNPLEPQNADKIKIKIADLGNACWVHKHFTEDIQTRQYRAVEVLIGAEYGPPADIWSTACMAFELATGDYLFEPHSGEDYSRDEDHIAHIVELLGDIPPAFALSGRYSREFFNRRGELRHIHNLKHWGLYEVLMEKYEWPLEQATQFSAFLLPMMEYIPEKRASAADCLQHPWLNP
Chain of PIK3C2B (O00750 whole entry): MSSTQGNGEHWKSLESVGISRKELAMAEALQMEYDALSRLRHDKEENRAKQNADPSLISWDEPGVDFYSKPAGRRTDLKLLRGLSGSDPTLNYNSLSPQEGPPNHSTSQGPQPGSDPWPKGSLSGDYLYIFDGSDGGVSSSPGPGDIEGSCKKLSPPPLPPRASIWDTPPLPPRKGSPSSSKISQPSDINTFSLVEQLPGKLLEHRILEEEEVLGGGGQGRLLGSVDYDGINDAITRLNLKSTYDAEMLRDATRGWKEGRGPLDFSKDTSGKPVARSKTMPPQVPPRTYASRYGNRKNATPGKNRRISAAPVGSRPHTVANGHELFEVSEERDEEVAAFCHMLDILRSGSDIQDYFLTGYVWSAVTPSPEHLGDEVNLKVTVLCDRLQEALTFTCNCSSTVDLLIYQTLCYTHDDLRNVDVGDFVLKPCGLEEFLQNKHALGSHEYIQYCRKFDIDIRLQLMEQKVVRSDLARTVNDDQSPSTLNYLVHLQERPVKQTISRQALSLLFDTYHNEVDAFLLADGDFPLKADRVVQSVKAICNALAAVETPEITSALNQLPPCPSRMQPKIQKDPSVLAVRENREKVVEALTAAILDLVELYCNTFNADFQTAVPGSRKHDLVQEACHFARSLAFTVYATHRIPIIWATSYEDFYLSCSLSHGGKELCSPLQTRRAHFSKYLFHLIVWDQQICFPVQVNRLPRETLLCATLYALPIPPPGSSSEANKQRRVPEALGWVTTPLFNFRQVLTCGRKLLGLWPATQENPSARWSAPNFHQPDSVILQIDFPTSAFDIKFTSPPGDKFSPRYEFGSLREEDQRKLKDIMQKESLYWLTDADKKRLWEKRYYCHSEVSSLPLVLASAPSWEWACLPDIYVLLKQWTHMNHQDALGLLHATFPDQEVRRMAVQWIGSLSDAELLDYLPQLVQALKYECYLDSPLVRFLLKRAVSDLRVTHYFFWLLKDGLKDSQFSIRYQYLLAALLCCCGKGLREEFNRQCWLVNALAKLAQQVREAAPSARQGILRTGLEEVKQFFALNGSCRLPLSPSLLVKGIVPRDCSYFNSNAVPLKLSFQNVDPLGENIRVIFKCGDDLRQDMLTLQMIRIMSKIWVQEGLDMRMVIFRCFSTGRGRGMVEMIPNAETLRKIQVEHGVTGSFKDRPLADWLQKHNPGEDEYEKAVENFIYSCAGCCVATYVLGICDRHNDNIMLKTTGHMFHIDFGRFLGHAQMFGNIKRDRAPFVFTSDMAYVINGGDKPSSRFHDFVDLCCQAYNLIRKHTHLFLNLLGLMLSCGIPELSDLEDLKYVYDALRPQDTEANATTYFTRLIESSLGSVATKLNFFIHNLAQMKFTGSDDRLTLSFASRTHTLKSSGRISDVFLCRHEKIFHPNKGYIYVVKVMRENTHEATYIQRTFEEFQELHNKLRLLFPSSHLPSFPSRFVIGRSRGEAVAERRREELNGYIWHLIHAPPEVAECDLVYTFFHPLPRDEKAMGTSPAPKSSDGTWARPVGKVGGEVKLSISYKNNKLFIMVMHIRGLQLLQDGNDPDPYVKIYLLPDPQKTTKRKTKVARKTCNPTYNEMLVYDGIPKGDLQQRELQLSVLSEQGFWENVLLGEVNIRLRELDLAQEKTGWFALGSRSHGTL
Chain of CDK9 (P50750 whole entry): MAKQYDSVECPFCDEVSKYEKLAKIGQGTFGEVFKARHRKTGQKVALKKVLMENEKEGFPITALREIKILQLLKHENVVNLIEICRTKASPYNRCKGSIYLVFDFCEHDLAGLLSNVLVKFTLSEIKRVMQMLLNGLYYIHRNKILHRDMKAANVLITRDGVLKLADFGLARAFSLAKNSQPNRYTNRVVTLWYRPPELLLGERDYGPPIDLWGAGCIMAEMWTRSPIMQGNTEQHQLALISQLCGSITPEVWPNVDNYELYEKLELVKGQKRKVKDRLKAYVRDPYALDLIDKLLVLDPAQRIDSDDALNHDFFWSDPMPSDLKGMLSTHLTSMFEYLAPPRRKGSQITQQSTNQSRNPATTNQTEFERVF
Chain of RIOK2 (Q9BVS4 whole entry): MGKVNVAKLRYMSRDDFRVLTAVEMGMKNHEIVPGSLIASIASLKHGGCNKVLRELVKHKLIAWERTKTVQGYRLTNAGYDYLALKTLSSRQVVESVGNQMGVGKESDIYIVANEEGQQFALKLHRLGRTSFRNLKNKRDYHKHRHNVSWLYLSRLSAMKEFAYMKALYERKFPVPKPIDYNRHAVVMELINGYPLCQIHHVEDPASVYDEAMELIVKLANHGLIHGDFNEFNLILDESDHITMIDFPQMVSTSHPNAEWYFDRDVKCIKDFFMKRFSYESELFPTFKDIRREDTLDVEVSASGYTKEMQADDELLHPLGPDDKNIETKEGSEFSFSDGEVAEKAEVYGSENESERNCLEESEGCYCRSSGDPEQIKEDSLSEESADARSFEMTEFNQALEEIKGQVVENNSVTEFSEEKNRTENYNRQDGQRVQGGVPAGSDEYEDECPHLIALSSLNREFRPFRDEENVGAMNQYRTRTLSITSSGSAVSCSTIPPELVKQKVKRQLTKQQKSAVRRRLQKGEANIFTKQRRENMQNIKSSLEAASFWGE
Chain of TRKA (P04629 33-796): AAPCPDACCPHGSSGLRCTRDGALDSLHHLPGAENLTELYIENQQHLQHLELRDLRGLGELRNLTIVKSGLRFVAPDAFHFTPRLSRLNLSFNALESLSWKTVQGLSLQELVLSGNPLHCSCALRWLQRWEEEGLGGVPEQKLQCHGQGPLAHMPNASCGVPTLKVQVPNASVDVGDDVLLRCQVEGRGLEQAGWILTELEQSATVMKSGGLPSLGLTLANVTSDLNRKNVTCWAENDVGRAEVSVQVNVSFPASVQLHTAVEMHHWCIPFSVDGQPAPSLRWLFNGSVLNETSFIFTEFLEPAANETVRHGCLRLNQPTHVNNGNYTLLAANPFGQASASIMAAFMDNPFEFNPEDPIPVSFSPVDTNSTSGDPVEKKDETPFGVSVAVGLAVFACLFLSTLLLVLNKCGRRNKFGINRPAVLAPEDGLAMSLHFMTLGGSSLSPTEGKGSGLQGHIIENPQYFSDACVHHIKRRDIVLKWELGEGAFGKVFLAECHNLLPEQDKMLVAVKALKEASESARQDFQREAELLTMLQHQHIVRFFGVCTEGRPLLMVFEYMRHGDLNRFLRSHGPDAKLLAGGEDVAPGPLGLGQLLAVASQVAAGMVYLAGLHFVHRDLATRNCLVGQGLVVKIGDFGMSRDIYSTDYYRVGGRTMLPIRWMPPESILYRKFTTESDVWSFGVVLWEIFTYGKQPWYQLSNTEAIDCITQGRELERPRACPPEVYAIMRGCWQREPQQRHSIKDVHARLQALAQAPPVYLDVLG
Chain of TGFBR1 (P36897 34-503): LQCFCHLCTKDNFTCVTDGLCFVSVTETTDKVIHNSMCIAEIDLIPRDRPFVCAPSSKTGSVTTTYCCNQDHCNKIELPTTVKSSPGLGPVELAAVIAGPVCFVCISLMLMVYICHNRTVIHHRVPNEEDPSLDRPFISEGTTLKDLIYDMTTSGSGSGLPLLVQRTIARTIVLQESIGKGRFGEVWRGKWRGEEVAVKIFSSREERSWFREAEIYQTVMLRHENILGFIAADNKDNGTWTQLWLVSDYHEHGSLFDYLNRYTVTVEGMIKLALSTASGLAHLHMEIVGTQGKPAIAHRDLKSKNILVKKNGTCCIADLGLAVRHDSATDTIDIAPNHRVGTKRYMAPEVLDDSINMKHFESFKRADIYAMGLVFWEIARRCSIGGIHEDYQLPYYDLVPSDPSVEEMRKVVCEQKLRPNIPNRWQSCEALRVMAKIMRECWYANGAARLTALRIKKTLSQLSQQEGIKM

As to `COc1cc2c(Oc3ccc(NC(=O)C4(C(=O)Nc5ccc(F)cc5)CC4)cc3F)ccnc2cc1OCCCCCC(=O)NO` [Example 13, N1′-[3-fluoro-4-[[7-[6-(hydroxyamino)-6-oxohexyloxy]-6-methoxy-4-quinolyl]oxy]phenyl]-N1-(4-fluorophenyl)cyclopropane-1,1-dicarboxamide], the “% Ctrl@1000 nM” value on CSNK1D worked out at 54 % Ctrl; on BRAF(V600E), 88 % Ctrl; at MEK1, 0.95 % Ctrl; on EPHA2, 0.9 % Ctrl; at PIK3C2B, 99 % Ctrl; on PIK3CA it was 100 % Ctrl. Also, the “% Ctrl@1000 nM” value amounted to 21 % Ctrl at IGF1R; 85 % Ctrl at TGFBR1; 91 % Ctrl on LKB1; 73 % Ctrl on CDK2; 7.7 % Ctrl at MET; 0.5 % Ctrl at TRKA. Moreover, the “% Ctrl@1000 nM” value at PIK3CG is recorded as 66 % Ctrl; on SRPK3 it was 76 % Ctrl; at CDK9, 67 % Ctrl; on RIOK2, 100 % Ctrl; at MAPKAPK2 it was 67 % Ctrl; at PAK1 it was 66 % Ctrl. For the same compound, the “% Ctrl@1000 nM” value at INSR is 6 % Ctrl; at MARK3 it was 73 % Ctrl; at TSSK1B, 50 % Ctrl; on ROCK2, 53 % Ctrl.
